Measurements reported in patent US20240245711A1, “A 19-NOR C3,3-DISUBSTITUTED C21-N-PYRAZOLYL STEROID FOR THE TREATMENT OF MAJOR DEPRESSIVE DISORDER” (Sage Therapeutics, Inc., priority 2021, published 2024).

System: post-menopausal women with MDD
Experiment: Post hoc analysis of the Example 1 study: post-menopausal women with MDD
Type: in vivo, human
Source text: Hormonal changes during early menopause can often affect the metabolism of antidepressants (ADTs). Postmenopausal/older women may not respond well to ADTs. This example presents a post hoc analysis of the study described in Example 1 in post-menopausal women with MDD.
The study described in Example 1 enrolled patients with MDD, aged 18-75 years, with HAMD-17≥20 and a MADRS total score ≥28 to 1 of 2 cohorts: 30-mg Cohort and 50-mg Cohort. HAMD-17 responders (≥50% reduction from baseline) at Day 15 continued in study and were assessed for repeat-treatment eligibility. Post-menopausal women aged ≥45 were identified based on follicle stimulating hormone >40 at baseline (central lab data) and if medical history coded terms contained ‘menopause’.

[1] = Day 15, post-menopausal patients

Structure (SMILES): C[C@@]1(O)CC[C@H]2[C@H](CC[C@@H]3[C@@H]2CC[C@]2(C)[C@@H](C(=O)Cn4cc(C#N)cn4)CC[C@@H]32)C1 [Compound (1), 1-(2-((3R,5R,8R,9R,10S,13S,14S,17S)-3-hydroxy-3,13-dimethylhexadecahydro-1H-cyclopenta[a]phenanthren-17-yl)-2-oxoethyl)-1H-pyrazole-4-carbonitrile]
- Patients not requiring additional courses during their time in the study (106/152 post-menopausal patients who responded to and completed treatment cycle 1): 42.5%
- HAMD-17 remission rate [1]: 39.6%
- HAMD-17 response rate [1]: 75.7%
- Mean (SD) CFB in HAMD-17 [1]: −16.0 (7.00)
- TEAE diarrhea (post-menopausal patients): 7.9%
- TEAE dizziness (post-menopausal patients): 11.8%
- TEAE dry mouth (post-menopausal patients): 7.2%
- TEAE headache (post-menopausal patients): 13.2%
- TEAE insomnia (post-menopausal patients): 6.6%
- TEAE sedation (post-menopausal patients): 6.6%
- TEAE somnolence (post-menopausal patients): 12.5%
- TEAE upper respiratory infection (post-menopausal patients): 7.9%
- TEAEs leading to discontinuation of study drug (post-menopausal patients (8/152)): 5.3%
- TEAEs leading to withdrawal from the study (post-menopausal patients (9/152)): 5.9%
- TEAEs leading to dose reduction (post-menopausal patients (16/152)): 10.5%
- Share of patients with TEAEs that were mild or moderate (post-menopausal patients (90/102)): 88.2%
- Patients with at least 1 TEAE over the study duration (post-menopausal patients (102/152)): 67.1%
- Mean (range) number of total treatment courses (post-menopausal patients, cycle 1 responders): 2.2 (1-5)
- Tolerability (post-menopausal women): generally well-tolerated
